Assay results taken from US20200101182A1, “METHODS FOR INACTIVATING, ON MEDICAL INSTRUMENTS AND DEVICES, VIRUSES CONTAINING RNA AND DNA, AND APPARATUSES FOR IMPLEMENTATING SAME” (priority 2014, published 2020).

Test system: HBV
Experiment: Photodynamic inactivation of HBV in plasma by methylene blue solution under monochromatic light; HBV DNA in lymphocytes by PCR
Assay type: cell-based, human
Conditions: for amount of HBV DNA particles in lymphocytes, computed by PCR: HBV containing plasma, 90 minutes
Description: Medical instruments are placed in the cuvette 5 within the aforementioned aqueous solution of methylene blue 6, and the aforementioned door closed. The medical devices in the chamber 4 are then subjected to irradiation by emitters 7 of light energy, such as monochromatic radiation with a maximum specific content of monochromatic light with a wavelength of 590 nm or 660 nm, with a total light output of not less than 280 lm. The exposure time may be set to 90 minutes, e.g., using the aforesaid timer 9. After treatment, in the device 1, the viruses remaining on the medical instruments are completely inactivated, i.e., the viruses lose their ability to infect cells of the human body. Instruments so sterilized are then reliably reused without risk of infecting patients.
Verification steps of the employment of the claimed apparatuses and methods within an installation and carried out on in a biological environment contaminated by viruses, such as blood plasma.
Monochromatic radiation emitters 7 with a range of 590±2 nm are employed. After treatment in the inventive installation method, i.e., within device 1, samples of HBV containing plasma were treated for 90 minutes in a 0.01% solution of methylene blue, and afterward the amount of lymphocytes, computed by Polymerase Chain Reaction (PCR), of HBV DNA particles was zero, i.e., they were not found.
Monochromatic radiation emitters 7 with a range of 590±2 nm are employed. After treatment in the device 1, samples of HBV containing plasma were treated for 90 minutes in a 0.02% solution of methylene blue. As above, the amount of lymphocytes, computed by PCR, of HBV DNA particles were not found.
Monochromatic radiation emitters 7 with a range of 660±2 nm were employed. After treatment in the device 1, as set forth hereinabove, samples of HBV containing plasma were treated for 90 minutes in a 0.01% solution of methylene blue.
Monochromatic radiation emitters 7 with a range of 660±2 nm were employed.

CN(C)c1ccc2nc3ccc(=[N+](C)C)cc-3sc2c1 [methylene blue]
HBV inactivation (0.01% methylene blue solution, emitter range 588-592 nm): full effect
HBV inactivation (0.01% methylene blue solution, emitter range 658-662 nm): full sterilization treatment effect was reached
HBV inactivation (0.02% methylene blue solution, emitter range 588-592 nm): full effect
HBV inactivation (0.02% methylene blue solution, emitter range 658-662 nm): full effect
amount of HBV DNA particles in lymphocytes, computed by PCR (0.01% solution of methylene blue, emitters 590±2 nm): zero
amount of HBV DNA particles in lymphocytes, computed by PCR (0.01% solution of methylene blue, emitters 660±2 nm): found no HBV DNA particles
amount of HBV DNA particles in lymphocytes, computed by PCR (0.02% solution of methylene blue, emitters 590±2 nm): not found
amount of HBV DNA particles in lymphocytes, computed by PCR (0.02% solution of methylene blue, emitters 660±2 nm): no lymphocytes, computed by PCR, of the HBV DNA particles were found
